Measurements: patent publication US20170204102A1, “AGRICULTURAL AGENT CONTAINING 2,5-DIKETOPIPERAZINE DERIVATIVE AS ACTIVE INGREDIENT” (NAPRO BIOTEC INC., priority 2010, published 2017)
Read-outs that look alike come from different tables or passages of the source.

Experiments:
[1] = test system: Colletotrichum orbiculare; assay type: in vivo; conditions: cucumber; for Number of anthractic lesions in first leaf: control 12.5; for Number of anthractic lesions in second leaf: control 96.8
[2] = test system: Pectobacterium carotovorum SCC1; assay: Inhibition of soft rot lesion in cucumber leaf; assay type: in vivo
[3] = test system: cucumber leaf; assay: Promotion of growth of cucumber leaf; conditions: for Width of leaf: relative values with respect to the control group (89.9 mm) = 100.0; for response vs control in vivo at 1 ppm / response vs control in vivo at 10 ppm / response vs control in vivo at 100 ppm: Cucumis sativus, read-out: Width of leaf
Experimental: Plant leaves were tested with test compounds by drenching. […] 3-5 days later, the width of the leaves was measured again to compare the growth of the leaves relative to the control group.

[4] = test system: Colletotrichum acutatum; assay: Inhibition of anthracnose in red pepper fruit after soil drench; conditions: for Appearance of anthracnose: control 50
[5] = test system: Pectobacterium carotovorum SCC1; assay: Inhibition of soft rot lesion in tobacco leaf; assay type: in vivo
[6] = test system: Pectobacterium carotovorum SCC1; assay: Inhibition of naturally occurring soft rot in Chinese cabbage hydrocultured in summer; assay type: in vivo; conditions: 20 ppm; sprayed; examined 1 week later; control 58
Source text: After spraying test compounds to hydrocultured Chinese cabbage, naturally occurring soft rot was examined 1 week later.

3-(indol-3-ylmethyl)hexahydropyrrolo[1,2-a]pyrazin-1,4-dione [Compound No. 30]
Number of anthractic lesions in first leaf ([1]; 0.1 ppm): 2.5 | Number of anthractic lesions in second leaf ([1]; 0.1 ppm): 66.8 | Number of anthractic lesions in first leaf ([1]; 1 ppm): 3.0 | Number of anthractic lesions in second leaf ([1]; 1 ppm): 39.0 | Number of anthractic lesions in first leaf ([1]; 10 ppm): 7.0 | Number of anthractic lesions in second leaf ([1]; 10 ppm): 35.3 | Number of anthractic lesions in first leaf ([1]; 100 ppm): 7.8 | Number of anthractic lesions in second leaf ([1]; 100 ppm): 55.3 | Area of lesion ([2]; 1 ppm, Table 7, control 100): 88% | Area of lesion ([2]; 10 ppm, Table 7, control 100): 75% | Area of lesion ([2]; 100 ppm, Table 7, control 100): 70% | Width of leaf ([3]; 1.0 ppm): 101.6 | Width of leaf ([3]; 10 ppm): 123.5 | Width of leaf ([3]; 100 ppm): 119.5 | Appearance of anthracnose ([4]; 1 ppm): 0% | Appearance of anthracnose ([4]; 10 ppm): 0% | Appearance of anthracnose ([4]; 100 ppm): 0% | Appearance of anthracnose / anthractic lesion (in words) ([4]; Table 10, FIG. 9): hardly observed | Area of lesion ([5]; 1 ppm, Table 4, control 100): 2.5% | Area of lesion ([5]; 10 ppm, Table 4, control 100): 7.5% | Area of lesion ([5]; 100 ppm, Table 4, control 100): 2.5%

CC(C)CC1NC(=O)C(CO)NC1=O (stereo not shown) [Compound No. 1, 3-hydroxymethyl-6-(2-methylpropyl)-2,5-diketopiperazine]
Area of lesion ([2]; 1 ppm, Table 6, control 100): 95% | Area of lesion ([2]; 10 ppm, Table 6, control 100): 77.5% | Area of lesion ([2]; 100 ppm, Table 6, control 100): 50% | Area of lesion ([5]; 1 ppm, Table 3, control 87.5): 10% | Area of lesion ([5]; 10 ppm, Table 3, control 87.5): 32.5% | Area of lesion ([5]; 100 ppm, Table 3, control 87.5): 50%

CC(C)CC1NC(=O)CNC1=O (stereo not shown) [Compound No. 2, 3-(2-methylpropyl)-2,5-diketopiperazine]
Area of lesion ([2]; 1 ppm, Table 6, control 100): 92.5% | Area of lesion ([2]; 10 ppm, Table 6, control 100): 82.5% | Area of lesion ([2]; 100 ppm, Table 6, control 100): 50% | melting point: 241 to 244 °C | Area of lesion ([5]; 1 ppm, Table 3, control 87.5): 32.5% | Area of lesion ([5]; 10 ppm, Table 3, control 87.5): 40% | Area of lesion ([5]; 100 ppm, Table 3, control 87.5): 60%

CC(C)CC1NC(=O)C(C(C)O)NC1=O (stereo not shown) [Compound No. 3, 3-(1-hydroxyethyl)-6-(2-methylpropyl)-2,5-diketopiperazine]
Area of lesion ([2]; 1 ppm, Table 6, control 100): 45% | Area of lesion ([2]; 10 ppm, Table 6, control 100): 45% | Area of lesion ([2]; 100 ppm, Table 6, control 100): 42.5% | Area of lesion ([5]; 1 ppm, Table 3, control 87.5): 20% | Area of lesion ([5]; 10 ppm, Table 3, control 87.5): 10% | Area of lesion ([5]; 100 ppm, Table 3, control 87.5): 0%

CC(C)C1NC(=O)CNC1=O (stereo not shown) [Compound No. 4, 3-isopropyl-2,5-diketopiperazine]
Area of lesion ([2]; 1 ppm, Table 6, control 100): 37.5% | Area of lesion ([2]; 10 ppm, Table 6, control 100): 45% | Area of lesion ([2]; 100 ppm, Table 6, control 100): 87.5% | Area of lesion ([5]; 1 ppm, Table 3, control 87.5): 17.5% | Area of lesion ([5]; 10 ppm, Table 3, control 87.5): 52.5% | Area of lesion ([5]; 100 ppm, Table 3, control 87.5): 52.5%

O=C1CNC(=O)C(Cc2c[nH]c3ccccc23)N1 (stereo not shown) [Compound No. 5, 3-(indol-3-ylmethyl)-2,5-diketopiperazine]
melting point: 280 to 284 °C (dec.) | Area of lesion ([5]; 1 ppm, Table 3, control 87.5): 2.5% | Area of lesion ([5]; 10 ppm, Table 3, control 87.5): 5% | Area of lesion ([5]; 100 ppm, Table 3, control 87.5): 40%

CCCC1NC(=O)C(C)NC1=O (stereo not shown) [Compound No. 9, 3-methyl-6-(2-methylethyl)-2,5-diketopiperazine]
melting point: 220 to 222 °C (dec.)

CC1NC(=O)C(Cc2ccc(O)cc2)NC1=O (stereo not shown) [Compound No. 10, 3-methyl-6-(4-hydroxybenzyl)-2,5-diketopiperazine]
melting point: 276 to 280 °C (dec.)

O=C1NC(Cc2ccc(O)cc2)C(=O)N2CCCC12 (stereo not shown) [Compound No. 23, 3-(4-hydroxybenzyl)hexahydropyrrolo[1,2-a]pyrazin-1,4-dione]
response vs control in vivo at 1 ppm [3]: 97.8% | response vs control in vivo at 10 ppm [3]: 114% | response vs control in vivo at 100 ppm [3]: 110%

O=C1NC(Cc2ccccc2)C(=O)N2CCCC12 (stereo not shown) [Compound No. 24, 3-benzylhexahydropyrrolo[1,2-a]pyrazin-1,4-dione]
response vs control in vivo at 1 ppm [3]: 98.2% | response vs control in vivo at 10 ppm [3]: 104% | response vs control in vivo at 100 ppm [3]: 102%

CC1NC(=O)C2CCCN2C1=O (stereo not shown) [Compound No. 25, 3-methylhexahydropyrrolo[1,2-a]pyrazin-1,4-dione]
Appearance of soft rot [6]: 19% | Number of anthractic lesions in first leaf ([1]; 0.1 ppm): 3.8 | Number of anthractic lesions in second leaf ([1]; 0.1 ppm): 37.0 | Number of anthractic lesions in first leaf ([1]; 1 ppm): 1.3 | Number of anthractic lesions in second leaf ([1]; 1 ppm): 46.0 | Number of anthractic lesions in first leaf ([1]; 10 ppm): 1.0 | Number of anthractic lesions in second leaf ([1]; 10 ppm): 22.5 | Number of anthractic lesions in first leaf ([1]; 100 ppm): 2.0 | Number of anthractic lesions in second leaf ([1]; 100 ppm): 27.8 | Area of lesion ([2]; 1 ppm, Table 7, control 100): 78% | Area of lesion ([2]; 10 ppm, Table 7, control 100): 73% | Area of lesion ([2]; 100 ppm, Table 7, control 100): 85% | response vs control in vivo at 1 ppm [3]: 121% | response vs control in vivo at 10 ppm [3]: 119% | response vs control in vivo at 100 ppm [3]: 123% | Appearance of anthracnose ([4]; 1 ppm): 0% | Appearance of anthracnose ([4]; 10 ppm): 25% | Appearance of anthracnose ([4]; 100 ppm): 25% | Area of lesion ([5]; 1 ppm, Table 4, control 100): 15% | Area of lesion ([5]; 10 ppm, Table 4, control 100): 12.5% | Area of lesion ([5]; 100 ppm, Table 4, control 100): 0%

CC(C)CC1NC(=O)C2CCCN2C1=O (stereo not shown) [Compound No. 27, 3-(2-methylpropyl)hexahydropyrrolo[1,2-a]pyrazin-1,4-dione]
response vs control in vivo at 1 ppm [3]: 111% | response vs control in vivo at 10 ppm [3]: 135% | response vs control in vivo at 100 ppm [3]: 129%

O=C1C2CCCN2C(=O)C2CCCN12 (stereo not shown) [Compound No. 31, octahydropyrrolo[1,2-a:1′,2′-d]pyrazin-5,10-dione]
Area of lesion ([2]; 1 ppm, Table 7, control 100): 95% | Area of lesion ([2]; 10 ppm, Table 7, control 100): 78% | Area of lesion ([2]; 100 ppm, Table 7, control 100): 80% | Width of leaf ([3]; 1.0 ppm): 104.2 | Width of leaf ([3]; 10 ppm): 103.2 | Width of leaf ([3]; 100 ppm): 102.8 | Appearance of anthracnose ([4]; 1 ppm): 25% | Appearance of anthracnose ([4]; 10 ppm): 25% | Appearance of anthracnose ([4]; 100 ppm): 0% | Area of lesion ([5]; 1 ppm, Table 4, control 100): 47.5% | Area of lesion ([5]; 10 ppm, Table 4, control 100): 60% | Area of lesion ([5]; 100 ppm, Table 4, control 100): 17.5%
